From PubChem BioAssay (NCI) come the findings set out here.

Test in all cases: NCI-60 cell line screen, 48 h
For test [1], the system named is OVCAR-8 ovarian.
Test [2] deals with SW-620 colon.
Test [3] has as its system MDA-MB-231 breast.
Test [4] has as its system RPMI-8226 leukemia.
For test [5], the system named is DU-145 prostate.
Test [6] has as its system SN12C renal.
In test [7] the test system is HCT-116 colon.
Test [8] has as its system CAKI-1 renal.
The test system of test [9] is SK-OV-3 ovarian.
For test [10], the system named is HOP-62 NSCLC.
In test [11] the test system is MALME-3M melanoma.

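Assay format: 96-well plates, 48-hour exposure. TGI: concentration producing complete growth inhibition.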 Some results are limits rather than exact numbers.

For `CCOc1ccc2c(c1)c(=O)c1c(NCCN(CC)CC)ccc3nnn2c31`, the TGI was 65.8 µM in test [1]; 31.5 µM in [2]; 58.5 µM in test [3]; greater than 65.1 µM in test [4]; 54.4 µM in [5]; greater than 100 µM in test [6]. The TGI in [7] is greater than 44.9 µM; in test [8], 41.6 µM; in test [9] it was greater than 100 µM; in test [10], greater than 48.8 µM; in [11], 33.8 µM.

In the case of `S=c1[nH]c2ccc(I)cc2c(=S)n1Cc1ccccc1`, the TGI is 53.6 µM in [1]; 14.7 µM in test [2]; 20.4 µM in [3]; 12.1 µM in [4]; 11.9 µM in test [5]; 13.4 µM in test [6]. Besides, the TGI in test [7] is 13.2 µM; in test [8] it was greater than 100 µM; in test [9] it was greater than 100 µM; in test [10] it was 22.8 µM; in test [11], 33.6 µM.

As for `C=C(c1ccccc1)c1ccccc1-c1cc(-c2ccccc2)cc(-c2ccccc2)n1`, the TGI in test [1], in [2], in test [3], in test [4], in test [5] and in [6] was greater than 100 µM throughout. Besides, the TGI in [7], in test [8], in test [10] and in test [11] was greater than 100 µM each time.

For `CSc1scc2c1/C(=N/NC(N)=O)CCC2`, the TGI in test [1], in [2], in test [3], in test [4], in [5] and in test [6] was greater than 100 µM in each case. The TGI in [7], in [8], in test [9] and in test [10] was greater than 100 µM throughout.

Turning to `CCC(NC1=NCCO1)c1cccs1` (stereo unspecified), the TGI in test [1] was 30.3 µM; in test [2], greater than 100 µM; in [3] it was 44.6 µM; in test [4], greater than 100 µM; in [5], 28.5 µM; in test [7] it was 27.1 µM. Besides, the TGI in test [8] was 30.9 µM; in test [9], 27.3 µM; in test [11], 25.7 µM.

Regarding `CC(=O)c1c2n(n(-c3ccccc3)c1=O)C(=O)c1nccnc1-2`, the TGI in [1], in test [2], in test [3], in [4], in test [5] and in test [6] was greater than 100 µM each time. Besides, the TGI in test [7], in test [8], in [9] and in test [11] was greater than 100 µM each time.

As to `C=CC(C)(C)C(=C)C(=O)Nc1ccccc1I`, the TGI in [1], in test [2], in [3], in [4], in test [5] and in test [6] was greater than 100 µM in each case. The TGI in test [7], in test [8], in test [9] and in test [10] was greater than 100 µM in each case.

`C=C1CN(C2=NCCO2)C1`: the TGI in test [1], in [2], in [3], in test [4], in [5] and in test [6] was greater than 100 µM each time. Moreover, the TGI in test [7], in test [8], in test [10] and in [11] was greater than 100 µM throughout.

`CC(=O)/C(=C/N1CCNC1=S)C(=O)Nc1ccccc1C`: the TGI in test [1], in test [2], in test [3], in test [4], in test [5] and in test [6] was greater than 100 µM throughout. Further, the TGI in test [7], in [8], in test [9] and in [10] was greater than 100 µM each time.

Consider `CC(C)(C)OC(=O)NCC(=O)N1CCN(C(=O)CNC(=O)OC(C)(C)C)CC1`, for which the TGI in test [1], in [2], in test [3], in test [4], in [5] and in [6] was greater than 100 µM throughout. Besides, the TGI in test [7], in [8], in test [9] and in [10] was greater than 100 µM throughout.

As to `CC(=O)Nc1ccccc1NC1CC(C)N(c2ccccc2)N1C(C)=O` (stereo unspecified), the TGI in test [1], in [2], in [3], in test [4], in [5] and in test [6] was greater than 10 µM each time. For the same compound, the TGI in test [8], in test [9], in test [10] and in test [11] was greater than 10 µM in each case.

As to `CN1CCN(C2=CC(=O)c3c(O)ccc(O)c3C2=O)CC1`, the TGI in test [2] was 1.89 µM; in test [3], 3.1 µM; in test [4], 6.25 µM; in test [5], 3.13 µM; in test [6] it was 2.99 µM; in test [7], 0.578 µM. Moreover, the TGI in [8] is 3.08 µM; in test [9], greater than 10 µM; in test [10], 2.16 µM; in [11], 0.592 µM.

With `Cc1c(C(=O)O)n2cnnc2c2ccccc12`, the TGI in test [1], in test [2], in [3], in test [4], in test [5] and in test [6] was greater than 100 µM throughout. Also, the TGI in [7], in [8], in [9] and in [10] was greater than 100 µM each time.
